Measured values taken from US20260285853A1, “COMPOUNDS AND METHODS FOR MODULATING SPLICING” (REMIX THERAPEUTICS INC., priority 2023, published 2026).

How the values were obtained:
Format in all cases: cell-based
[1] = test system: HTT mRNA; experiment: Splicing RT-qPCR assay, canonical (CJ) and alternative (AJ) junction mRNA, K562 cells; conditions: Homo sapiens, K562.3 cells, 24 hours; for AC50: read-out: HTT AJ (AC50, increase in AJ mRNA); for IC50: read-out: HTT CJ (IC50, decrease in CJ mRNA)
Summary of the method: (§1)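 Splicing switches are measured in K562 cells exposed to compound for 24 h (top 10 uM final, 11 points, 3-fold). Lysates go straight into one-step RT-qPCR, and transcript levels are normalized to GAPDH or GUSB and to DMSO before conversion to percentage response using fixed ΔCt assay windows.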

[2] = test system: MYB mRNA; experiment: as above; conditions: Homo sapiens, K562.3 cells, 24 hours; for AC50: read-out: MYB AJ (AC50, increase in AJ mRNA); for IC50: read-out: MYB CJ (IC50, decrease in CJ mRNA)
Summary of the method: as §1

[3] = test system: HTT mRNA; experiment: Splicing RT-qPCR assay (THP), Table 2A; conditions: Table 2A (THP); for AC50: AJ mRNA increase, read-out: HTT AJ (increase in alternative junction mRNA, AC50); for IC50: CJ mRNA decrease, read-out: HTT CJ (decrease in canonical junction mRNA, IC50)
[4] = test system: MYB mRNA; experiment: Splicing RT-qPCR assay (THP), Table 2A; conditions: Table 2A (THP); for AC50: AJ mRNA increase, read-out: MYB AJ (increase in alternative junction mRNA, AC50); for IC50: CJ mRNA decrease, read-out: MYB CJ (decrease in canonical junction mRNA, IC50)
[5] = test system: SH-SY5Y (human neuroblastoma) cells; experiment: Cell viability, Cell Titer Glo 2.0 assay; conditions: read-out: Viability SHSY5Y.3 GI50
Summary of the method: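 SH-SY5Y neuroblastoma cells are exposed to test compounds for 72 hours at 37 °C and 5% CO2, with final DMSO held at 0.1%. Cell viability is then measured with the CellTiter-Glo 2.0 assay.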

| Compound | IC50 [1] [nM] | IC50 [2] [nM] | IC50 [3] [nM] | IC50 [4] [nM] | GI50 [5] [nM] | AC50 [1] [nM] | AC50 [2] [nM] | AC50 [3] [nM] | AC50 [4] [nM] |
| --- | --- | --- | --- | --- | --- | --- | --- | --- | --- |
| Cc1cn2cc(NC(=O)c3ccc(N4CCNC(C(F)(F)F)C4)c4cn(C)nc34)cc(F)c2n1 (stereo not drawn) [Compound 248, N-(8-fluoro-2-methyl-imidazo[1,2-a]-pyridin-6-yl)-2-methyl-4-[3-(trifluoro-methyl)piperazin-1-yl]indazole-7-carboxamide] | > 10000 | 1000 to 10000 | > 10000 | > 10000 | > 10000 | > 10000 | 1000 to 10000 | > 10000 | 1000 to 10000 |
| CCNC1CCN(c2ccc(C(=O)Nc3cc(F)c4nc(C)c(C)n4c3)c3nn(C)cc23)CC1 [Compound 188, 4-[4-(ethylamino)-1-piperidyl]-N-(8-fluoro-2,3-dimethyl-imidazo[1,2-a]pyridin-6-yl)-2-methyl-indazole-7-carboxamide] | > 10000 | > 10000 | > 10000 | > 10000 | 1000 to 10000 | > 10000 | > 10000 | > 10000 | > 10000 |
| CCNC1CCN(c2ccc(C(=O)Nc3cc(F)c4nc(CF)cn4c3)c3nn(C)cc23)CC1 [Compound 202, 4-[4-(ethylamino)-1-piperidyl]-N-[8-fluoro-2-(fluoromethyl)imidazo[1,2-a]pyridin-6-yl]-2-methyl-indazole-7-carboxamide] | 1000 to 10000 | < 100 | 1000 to 10000 | < 100 | 100 to 1000 | 1000 to 10000 | 100 to 1000 | 100 to 1000 | < 100 |
| CCNC1CCN(c2ccc(C(=O)Nc3cc(OC)c4nc(C)cn4c3)c3nn(C)cc23)CC1 [Compound 175, 4-(4-(ethylamino)piperidin-1-yl)-N-(8-methoxy-2-methyl-imidazo-[1,2-a]pyridin-6-yl)-2-methyl-2H-indazole-7-carboxamide] | 100 to 1000 | 100 to 1000 | 1000 to 10000 | < 100 | 1000 to 10000 | 1000 to 10000 | 100 to 1000 | 1000 to 10000 | < 100 |
| COc1c(NC(=O)c2c(F)cc(N3CCC(NC4CC4)CC3)c3cn(C)nc23)cn2cc(C)nc2c1F [Compound 207, 4-[4-(cyclopropylamino)-1-piperidyl]-6-fluoro-N-(8-fluoro-7-methoxy-2-methyl-imidazo[1,2-a]pyridin-6-yl)-2-methyl-indazole-7-carboxamide] | < 100 | < 100 | < 100 | < 100 | < 100 | < 100 | < 100 | < 100 | < 100 |

Now from value to molecule, other results behind:

| IC50 [1] [nM] | IC50 [2] [nM] | IC50 [3] [nM] | IC50 [4] [nM] | GI50 [5] [nM] | Compound | AC50 [1] [nM] | AC50 [2] [nM] | AC50 [3] [nM] | AC50 [4] [nM] |
| --- | --- | --- | --- | --- | --- | --- | --- | --- | --- |
| > 10000 | 100 to 1000 | > 10000 | 100 to 1000 | 1000 to 10000 | COCCN[C@@H]1CCN(c2ccc(C(=O)Nc3cc(F)c4nc(C)cn4c3)c3nn(C)cc23)C1 [Compound 113, N-(8-fluoro-2-methyl-imidazo[1,2-a]pyridin-6-yl)-4-[(3R)-3-(2-methoxyethylamino)pyrrolidin-1-yl]-2-methyl-indazole-7-carboxamide] | > 10000 | 100 to 1000 | > 10000 | 100 to 1000 |
| 100 to 1000 | 100 to 1000 | 100 to 1000 | 100 to 1000 | 1000 to 10000 | Cc1cn2cc(NC(=O)c3ccc(N4C[C@@H](C)N[C@@H](C)C4)c4nn(C)nc34)cc(F)c2n1 [Compound 252, 7-((3S,5R)-3,5-dimethyl-piperazin-1-yl)-N-(8-fluoro-2-methyl-imidazo[1,2-a]pyridin-6-yl)-2-methyl-2H-benzo[d][1,2,3]triazole-4-carboxamide 2,2,2-trifluoroacetate] | 100 to 1000 | 100 to 1000 | 1000 to 10000 | 100 to 1000 |
| > 10000 | > 10000 | > 10000 | > 10000 | > 10000 | Cc1cn2cc(NS(=O)(=O)c3ccc(N4C[C@@H](C)N[C@@H](C)C4)c4cn(C)nc34)cc(F)c2n1 [Compound 279] | > 10000 | > 10000 | > 10000 | > 10000 |
